Source: US20230287416A1, “COMBINATORY TREATMENT OF SMA WITH SARNA AND MRNA MODULATORS” (RACTIGEN THERAPEUTICS, priority 2020, published 2023)

Tested on: SMN2 mRNA
Experiment: RT-qPCR of SMN2FL and SMN2 Δ7 mRNA in GM03813 cells
Type: cell-based, human
Details: GM03813, 72 h, alone or in combination at 10 nM, RT-qPCR (Example 10, FIG. 12A)
Description: “GM03813 cells” refers to fibroblast cells provided by Coriell Institute for Medical Research. This cell line is described as SPINAL MUSCULAR ATROPHY, TYPE II; SMA2 SURVIVAL OF MOTOR NEURON 1, TELOMERIC; SMN1. The relevant gene is SMN1; the chromosomal location is 5q12.2-q13.3, the allelic variant is described as 1 exons 7 and 8 deleted, SPINAL MUSCULAR ATROPHY, TYPE I; and the identified mutation: is EX7-8DEL.
Seventy-two hours later, total cellular RNA was isolated from the treated cells and reverse transcribed into cDNA. SMN2 mRNA expression was assessed with RT-qPCR using primer pairs specific for SMN2FL or SMN2 Δ7. SMN2 mRNA expression was also assessed by semi-quantitative RT-PCR using a primer pair that amplifies both SMN2FL and SMN2 Δ7 followed by DdeI digestion (PCR/digestion). […] After digestion, both bands were reduced by 115 bp, resulting in two products: 392 bp (SMN2FL) and 338 bp (SMN2 Δ7) as shown on the gel of FIG. 3D. FIG. 3A-3D show dose-dependent changes in SMN2FL and SMNΔ7 mRNA as assessed by RT-qPCR and PCR/digestion respectively. FIG. 3E-3G are graphic plots of data from quantitating the intensity of bands in FIG. 3D.
SMA patient derived fibroblasts were obtained from Coriell Institute (Camden, N.J., USA), including GM00232 (SMA type I with 2 copies of SMN2 gene) and GM03813 (SMA type II with 3 copies of SMN2 gene). These cells were cultured at 5% C02 and 37° C. in modified MEM medium (Gibco, Thermo Fisher Scientific, Carlsbad, Calif.) supplemented with 15% bovine calf serum (Sigma-Aldrich), 1% NEAA (Gibco) and 1% penicillin/streptomycin (Gibco). To transfect oligonucleotides including saRNAs, siRNA and ASO, cells were seeded into 6-well plates at a density of 1×10^5 cells/well and were transfected with oligonucleotides at different concentrations using RNAiMax (Invitrogen, Carlsbad, Calif.) according to the reverse transfection protocol provided by the manufacturer for 72 hours (unless otherwise specified). For Risdiplam treatment of cells, Risdiplam (HY-109101, MedChem Express Company, Monmouth Junction, N.J., USA) dissolved in DMSO was added directly to cells at desired concentration for 72 hours unless specified otherwise.
For RNA isolation from cultured cells, total cellular RNA was isolated from treated cells using an RNeasy Plus Mini kit (Qiagen, Hilden, Germany) according to its manual. To isolated RNA from animal tissues, tissues were harvested and stored at RNA later (AM7021, Thermo Fisher). Total RNA was then isolated using MagPure Total RNA Micro LQ kit (Magen, R6621, China) by auto-pure96 machine (ALLSHENG, China). The resultant RNA (1 μg) was reverse transcribed into cDNA by using a PrimeScript RT kit containing gDNA Eraser (Takara, Shlga, Japan). The resultant cDNA was amplified in an ABI 7500 Fast Real-time PCR System (Applied Biosystems; Foster City, Calif.) using SYBR Premix Ex Taq 11 (Takara, Shlga, Japan) reagents and primers which specifically amplified full-length (SMN2FL) or A7 SMN2 mRNA (SMN2 Δ7) (FIG. 1). The reaction conditions were: 95° C. for 3 seconds (1 cycle) and 60° C. for 30 seconds (40 cycles). Amplification of TBP gene served as an internal control.

| Substance | SMN2FL mRNA fold change | SMN2 Δ7 mRNA fold change |
| --- | --- | --- |
| DS06-0067: saRNA targeting SMN2 promoter at -293; SEQ ID NO: 480/481 (chain 1 CACUGGAGUUCGAGACGAGTT; chain 2 CUCGUCUCGAACUCCAGUGTT; chemistry not given here) | 1.3 fold | 2.4 fold |
| DS06-0031: saRNA targeting SMN2 promoter at -1266; SEQ ID NO: 478/479 (chain 1 UUGUACACUUGGUCAACAUTT; chain 2 AUGUUGACCAAGUGUACAATT; chemistry not given here) | 0.9 fold | 1.9 fold |
